Assay results from publication PMC10385850, “Modified Hederagenin Derivatives Demonstrate Ex Vivo Anthelmintic Activity against Fasciola hepatica” (Pharmaceutics, 2023).
“Also recorded” adds a separate entry of the source. Where two headings read alike, the source gives them in different places.

Tests used:
[1] = test system: adult F. hepatica flukes (Italian strain); assay: Ex vivo dose response motility assay on adult liver flukes (Italian strain); type: cell-based, Fasciola hepatica; conditions: for Average motility of 3 parasites treated with 4.4 µM, 24 hours / Average motility of 3 parasites treated with 4.4 µM, 48 hours / Average motility of 3 parasites treated with 4.4 µM, 72 hours / Average motility of 3 parasites treated with 13.3 µM, 24 hours / Average motility of 3 parasites treated with 13.3 µM, 48 hours / Average motility of 3 parasites treated with 13.3 µM, 72 hours / Average motility of 3 parasites treated with 40 µM, 24 hours / Average motility of 3 parasites treated with 40 µM, 48 hours / Average motility of 3 parasites treated with 40 µM, 72 hours: adult flukes Italian strain, score 1 to 6; for EC50: adult flukes, motility; for Effect on adult fluke (Italian strain) movement, in words: dose response, MC042 statement at 40 μM after 72 h
Procedure: The collection, ex vivo culturing and screening of adult liver fluke (Italian strain; n = 3/condition) was previously described. Dose response assays (40 µM, 13.3 µM and 4.4 µM) were conducted for MC014, MC042, MC035, MC055 and MC062 with motility scores recorded at 24, 48 and 72 h (Table S6).

[2] = test system: F. hepatica newly excysted juveniles (NEJs), Italian strain; assay: Ex vivo screen against newly excysted juveniles (NEJs), phenotype and motility scoring; type: cell-based, Fasciola hepatica; conditions: for Average phenotype of 25 NEJs with 95% CI, 24 hours / Average phenotype of 25 NEJs with 95% CI, 48 hours / Average phenotype of 25 NEJs with 95% CI, 72 hours: ultrastructure score 1 normal to 6 dead or dissolved; for Activity against NEJs (first screen), in words: 72 h co-culture
Procedure: […] The NEJs were excysted from metacercariae and assayed at 10 μM (in 0.1% DMSO) final concentration alongside negative (0.1% DMSO) and positive (10 μM TCBZ, in 0.1% DMSO) controls as previously described. The MC and IVL compound series were screened separately.
The motility (1—good/normal; 2—moderate; 3—low; 4—very little; 5—no movement) and phenotypic (ultrastructural changes) scores were noted according to a previously described scoring matrix (Figure S1 and Table S2).

[3] = test system: immature F. hepatica flukes (Italian strain); assay: Ex vivo motility assay on immature liver flukes (Italian strain), single concentration and dose response; type: cell-based, Fasciola hepatica; conditions: 40 µM; for Average motility of 4 parasites with 95% CI at 24 hour time point: score 1 normal to 5 no movement or death; for Effect on immature fluke motility, in words: by 72 h
Procedure: The six selected compounds (at 40 µM in 0.4% DMSO) were evaluated on immature flukes (n = 4/condition) at 24, 48 and 72 h (Table S4). The protocol for culturing and scoring (motility) of these life stages have been previously described. Due to restricted numbers of immature worms, a dose response assay was conducted only for MC042. Here, immature worms (n = 2/concentration tested) were screened against descending concentrations of MC042 (40 µM, 13.3 µM and 4.4 µM); motility scores were recorded at 24, 48 and 72 h (Table S5). The scoring pattern used is identical to that described for NEJs.

[4] = test system: wild strain adult F. hepatica; assay: Ex vivo motility assay on adult liver flukes (wild strain); type: cell-based, Fasciola hepatica; conditions: 40 µM; for Average motility of 4 parasites with 95% CI at 72 hour time point: wild strain adult flukes, score 1 good/normal to 6 no movement or dead; for Effect on wild strain adult fluke motility, in words: 72 h
Procedure: Due to the high number of active molecules and a shortage of Italian strain adult liver flukes, the eleven hit compounds were screened for 72 h at 40 µM (in 0.4% DMSO) on wild strain adult F. hepatica (n = 4/condition) of unknown provenance (Table S3). The protocol for culturing and scoring (motility) the activity of these compounds was previously described (1—good/normal; 2—moderate; 3—resting (less than 10 s pulses of body and head), 4—apathetic (less than 2 s pulses of body and head), 5—paralysis and 6–no movement or dead worms). Six compounds were deemed active in these assays and were selected for further screening.

[5] = test system: Madin–Darby bovine kidney (MDBK) cells; assay: MTT cell viability assay on MDBK cells; type: cell-based
Procedure: MTT cell viability assays were performed on Madin–Darby bovine kidney (MDBK cells) for the five selected hederagenin derivatives (MC014, MC035, MC042, MC055 and MC062) using final concentrations of 100 μM, 75 μM, 50 μM, 25 μM, 10 μM, 5 μM and 1 μM (in 1% DMSO). Negative (1% v/v Triton X-100, Sigma-Aldrich, UK) and positive (1% v/v DMSO or media only) controls were included. The protocol was followed as previously described. Absolute EC50 values were calculated from the corrected absorbance of replicates by non-linear regression, after log transformation of concentrations and data normalization (where DMSO values represents 0% inhibition and TX-100 values represent 100% inhibition) using GrapPad Prism 8.

[6] = 48 h, immature flukes, score 1 to 5
[7] = 72 h, immature flukes, score 1 to 5
[8] = 72 h, read-out: EC50 with 95% CI on Adult Flukes (motility), 72 hour
[9] = 10 µM, 24 h, motility score 1 good/normal to 5 no movement
[10] = 10 µM, 48 h, motility score 1 good/normal to 5 no movement

SMILES | Average motility of 3 parasites treated with 4.4 µM, 24 hours [1] | Average motility of 3 parasites treated with 4.4 µM, 48 hours [1] | Average motility of 3 parasites treated with 4.4 µM, 72 hours ([1]; 72 h) | Average motility of 3 parasites treated with 13.3 µM, 24 hours [1] | Average motility of 3 parasites treated with 13.3 µM, 48 hours [1] | Average motility of 3 parasites treated with 13.3 µM, 72 hours ([1]; 72 h) | Average motility of 3 parasites treated with 40 µM, 24 hours [1] | Average motility of 3 parasites treated with 40 µM, 48 hours [1] | Average motility of 3 parasites treated with 40 µM, 72 hours ([1]; 72 h) | Average motility of 4 parasites with 95% CI at 24 hour time point ([3]; 24 h, immature flukes) | Average motility of 4 parasites with 95% CI at 48 hour time point [3, 6] | Average motility of 4 parasites with 95% CI at 72 hour time point [3, 7] | Effect on immature fluke motility, in words [3] | Average motility of 4 parasites with 95% CI at 72 hour time point [4] | EC50 [1, 8] | Effect on adult fluke (Italian strain) movement, in words [1] | Average motility of 25 NEJs with 95% CI, 24 hours [2, 9] | Average phenotype of 25 NEJs with 95% CI, 24 hours ([2]; 10 µM, 24 h) | Average motility of 25 NEJs with 95% CI, 48 hours [2, 10] | Average phenotype of 25 NEJs with 95% CI, 48 hours ([2]; 10 µM, 48 h) | further results
CSc1nc2cc(Cl)c(Oc3cccc(Cl)c3Cl)cc2[nH]1 [Triclabendazole, reference compound] | 1.00 (1.0; 1.0) | 1.00 (1.0; 1.0) | 1.00 (1.0; 1.0) | 1.00 (1.0;1.0) | 1.33 (0.6;1.9) | 2.00 (0.8; 3.1) | 2.33 (1.6; 2.9) | 5.66 (5.0; 6.3) | 6.00 (6.0; 6.0) | 5.0 (5.0,5.0) | 5.0 (5.0,5.0) | 5.0 (5.0,5.0) | completely immobile by 72 h | 6.00 (6.0;6.0) | – | – | – | – | – | – | Average motility of NEJs with 95% CI, 24 hours (positive control) ([2]; 40µM, 24 h, 50 NEJs, score 1 to 5): 5.00 (5.0;5.0); Average phenotype of NEJs with 95% CI, 24 hours (positive control) ([2]; 40µM, 24 h, 50 NEJs, score 1 to 6): 6.00 (6.0;6.0); Average motility of NEJs with 95% CI, 48 hours (positive control) ([2]; 40µM, 48 h, 50 NEJs, score 1 to 5): 5.00 (5.0;5.0); Average phenotype of NEJs with 95% CI, 48 hours (positive control) ([2]; 40µM, 48 h, 50 NEJs, score 1 to 6): 6.00 (6.0;6.0); Average motility of NEJs with 95% CI, 72 hours (positive control) ([2]; 40µM, 72 h, 50 NEJs, score 1 to 5): 5.00 (5.0;5.0); Average phenotype of NEJs with 95% CI, 72 hours (positive control) ([2]; 40µM, 72 h, 50 NEJs, score 1 to 6): 6.00 (6.0;6.0); Average motility of 2 parasites treated with 40 µM, 24 hours ([3]; 24 h, immature flukes, dose response, score 1 to 5): 5.00 (5.0; 5.0); Average motility of 2 parasites treated with 40 µM, 48 hours ([3]; 48 h, immature flukes, dose response, score 1 to 5): 5.00 (5.0; 5.0); Average motility of 2 parasites treated with 40 µM, 72 hours ([3]; 72 h, immature flukes, dose response, score 1 to 5): 5.00 (5.0; 5.0)
CC1(C)CC[C@]2(C(=O)O)CC[C@]3(C)C(=CC[C@@H]4[C@@]5(C)CC[C@@H]6OC(C)(C)OC[C@@]6(C)[C@@H]5CC[C@]43C)[C@@H]2C1 [MC014] | 1.00 (1.0;1.0) | 1.00 (1.0;1.0) | 3.00 (1.8; 4.1) | 1.33 (0.6;1.9) | 1.66 (0.3;2.9) | 3.33 (2.6;3.9) | 3.33 (2.6;3.9) | 4.00 (4.0;4.0) | 5.33 (4.0;6.6) | 5.00 (5.0;5.0) | 5.00 (5.0;5.0) | 5.00 (5.0;5.0) | paralyzed the assayed immature flukes | 6.00 (6.0;6.0) | 9.3 µM | Decreased movement | 5.00 (5.0;5.0) | 4.12 (3.5;4.6) | 5.00 (5.0;5.0) | 6.00 (6.0;6.0) | EC50 ([1]; 24 h exposure, read-out: EC50 with 95% CI on Adult Flukes (motility), 24 hour): 13.5 µM; CC50 with 95% CI on MDBK cells (cytotoxicity) ([5]; MDBK cells, MTT, 24 h exposure): Undefined ^c; Effect on MDBK cell proliferation, in words ([5]; dose response titration up to 100 μM): modest proliferative effect; Cytotoxicity on MDBK cells, in words ([5]; highest concentration tested 100 μM): not cytotoxic even at the highest concentration tested; Average motility of 25 NEJs with 95% CI, 72 hours ([2]; 10 µM, 72 h, motility score 1 good/normal to 5 no movement): 5.00 (5.0;5.0); Average phenotype of 25 NEJs with 95% CI, 72 hours ([2]; 10 µM, 72 h): 6.00 (6.0;6.0); Activity against NEJs (first screen), in words ([2]; 10 µM): maximal alterations to both phenotype/ultrastructure and motility; Effect on wild strain adult fluke motility, in words [4]: no motility after 72 h; also recorded: performed very well
CC1(C)CC[C@]2(NC(=O)N3CCNCC3)CC[C@]3(C)C(=CCC4[C@@]5(C)CCC6OC(C)(C)OC[C@@]6(C)C5CC[C@]43C)C2C1 (stereo partly drawn) [MC035, N-((4aR,6aR,6bS,8aS,14bR)-2,2,4a,6a,6b,11,11,14b-Octamethyl-4a,5,6,6a,6b,7,8,9,10,11,12,12a,14,14a, 14b,15,16,16a-octadecahydro-4H-piceno[3,4-d][1,3]dioxin-8a(4bH)-yl)piper-azine-1-carboxamide] | 1.00 (1.0;1.0) | 1.00 (1.0;1.0) | 1.00 (1.0;1.0) | 1.00 (1.0;1.0) | 1.00 (1.0;1.0) | 3.66 (2.3; 4.9) | 2.33 (1.6;2.9) | 4.33 (3.6;4.9) | 5.00 (3.8;6.1) | 5.00 (5.0;5.0) | 5.00 (5.0;5.0) | 5.00 (5.0;5.0) | paralyzed the assayed immature flukes | 5.75 (5.2; 6.2) | 14.3 µM | Decreased movement | 5.00 (5.0;5.0) | 6.00 (6.0;6.0) | 5.00 (5.0;5.0) | 6.00 (6.0;6.0) | CC50 ([5]; MDBK cells, MTT, 24 h exposure, read-out: CC50 with 95% CI on MDBK cells (cytotoxicity)): 79.8 µM; Average phenotype of 25 NEJs with 95% CI, 72 hours ([2]; 10 µM, 72 h): 6.00 (6.0;6.0); Activity against NEJs (first screen), in words ([2]; 10 µM): maximal alterations to both phenotype/ultrastructure and motility; Effect on wild strain adult fluke motility, in words [4]: partial paralysis
